We go through 21 molecules from patent publication USRE47689E1, “Compounds for treating spinal muscular atrophy” (PTC Therapeutics, Inc., priority 2011, dated 2019).

Structures are written as SMILES. Where two headings read alike, the source gives them in different places.

Data set [1] relates to Smn protein. Briefly: Smn protein assay in cultured cells (SMN HTRF). The format is cell-based, human. Conditions: 48 hours; for maximum fold (Fold) increase of Smn protein: SMA patient fibroblast cells, 7-point concentration data, fold increase relative to vehicle control (SMN HTRF); for EC1.5x (concentration giving 1.5-fold Smn protein increase): SMA Type 1 patient fibroblast cells (GM03813), 7-point concentration curve, SMN HTRF, concentration producing 1.5 times Smn protein vs DMSO vehicle control, read-out: EC1.5x for Smn protein expression. In outline: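 Smn in SMA fibroblast lysates, measured by anti-SMN HTRF after 48 h compound exposure; EC1.5x from fold change over vehicle.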
For orientation: In TR-FRET formats the signal depends on donor and acceptor labels being close together.

The test system of data set [2] is SMN2 minigene (full length SMN2 minigene mRNA containing SMN2 exon 7). Briefly: SMN2 minigene mRNA splicing RT-qPCR assay in cultured cells. The format is cell-based, human. Conditions: Homo sapiens, HEK293-H, read-out: EC1.5x for production of full length SMN2 mRNA. In outline: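 Lysates → one-step RT-qPCR, minigene-specific primers (0.4 μM final) + GAPDH multiplex, 40 cycles. FL/GAPDH vs DMSO; EC1.5x, star-binned.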
(In general: Quantitative PCR measures a nucleic acid by following its amplification.)

[3] abbreviates: HEK293H cells stably transfected with SMN2-A minigene, 24 hours, 7-point concentration curve, 1.5-fold relative to vehicle-treated cells.

`Cc1ccn2cc(-c3cc4ccc(N5CCN[C@H](C)C5)cc4oc3=O)nc2c1` [Compound 214, 3-(7-methylimidazo[1,2-a]pyridin-2-yl)-7-[(3R)-3-methylpiperazin-1-yl]-2H-chromen-2-one]: the melting point turned out to be 222 °C. Further, in data set [1], the “maximum fold (Fold) increase of Smn protein” value (shortened to “maximum fold (Fold) increase”) was “** (fold increase between >1.2 and ≤1.35)”. Besides, the EC (1.5-fold) in data set [2] (setting [3]) was 0.3 to 1 µM.

Take `CN1CCCN(c2ccc3cc(-c4cn5cc(Cl)cnc5n4)c(=O)oc3c2)CC1` [Compound 337, 3-(6-chloroimidazo[1,2-a]pyrimidin-2-yl)-7-(4-methyl-1,4-diazepan-1-yl)-2H-chromen-2-one]: the melting point lay within 289 to 292 °C. Further, in data set [1], the “maximum fold (Fold) increase” value is given as “* (maximum fold increase of ≤1.2)”. Also, in data set [2] (setting [3]), the EC (1.5-fold) was in the range of 1 to 3 µM.

Molecule `CCCN1CCN(c2ccc3cc(-c4cn5cccc(C)c5n4)c(=O)oc3c2)CC1` [Compound 101, 3-(8-methylimidazo[1,2-a]pyridin-2-yl)-7-(4-propylpiperazin-1-yl)-2H-chromen-2-one] showed a melting point of 249 to 251 °C. Moreover, the “maximum fold (Fold) increase” value in data set [1] was “** (fold increase between >1.2 and ≤1.35)”. Further, the EC (1.5-fold) in data set [2] (setting [3]) fell in the range of 1 to 3 µM.

`O=c1oc2cc(N3CCNCC3)cc(F)c2cc1-c1nc2ccccc2[nH]1` [Compound 375, 3-(1H-benzimidazol-2-yl)-5-fluoro-7-(piperazin-1-yl)-2H-chromen-2-one]: the melting point lay within 245 to 250 °C. Moreover, the “maximum fold (Fold) increase” value in data set [1] is “** (fold increase between >1.2 and ≤1.35)”. The EC (1.5-fold) in data set [2] (setting [3]) lay within 0.3 to 1 µM.

Turning to `C[C@@H]1CN(c2ccc3cc(-c4cn5cccc(Cl)c5n4)c(=O)oc3c2)C[C@H](C)N1C` [Compound 137, 3-(8-chloroimidazo[1,2-a]pyridin-2-yl)-7-[(3R,5S)-3,4,5-trimethylpiperazin-1-yl]-2H-chromen-2-one], the melting point is 244 to 247 °C. In addition, the “maximum fold (Fold) increase” value in data set [1] was “*** (fold increase between >1.35 and ≤1.5)”. Besides, the EC (1.5-fold) in data set [2] (setting [3]) was in the range of 1 to 3 µM.

For `Cc1ccn2nc(-c3cc4ccc(N5C[C@@H](C)N[C@@H](C)C5)cc4oc3=O)cc2c1` [Compound 304, 7-[(3R,5S)-3,5-dimethylpiperazin-1-yl]-3-(5-methylpyrazolo[1,5-a]pyridin-2-yl)-2H-chromen-2-one], the melting point fell in the range of 200 to 202 °C. Also, in data set [1], the EC1.5x (concentration giving 1.5-fold Smn protein increase) fell in the range of 1000 to 3000 nM; the “maximum fold (Fold) increase” value was “*** (fold increase between >1.35 and ≤1.5)”. Moreover, the EC (1.5-fold) in data set [2] (setting [3]) was in the range of 0.1 to 0.3 µM.

Molecule `Cc1cc2cc(-c3cc4ccc(N5CCN(CCO)CC5)cc4oc3=O)oc2c(C)n1` [Compound 774, 3-(5,7-dimethylfuro[2,3-c]pyridin-2-yl)-7-[4-(2-hydroxyethyl)piperazin-1-yl]-2H-chromen-2-one] showed a melting point of 203 to 205 °C. Besides, in data set [1], the EC1.5x (concentration giving 1.5-fold Smn protein increase) was < 300 nM; the “maximum fold (Fold) increase” value is “**** (fold increase between >1.5 and ≤1.65)”. The EC (1.5-fold) in data set [2] (setting [3]) was < 0.1 µM.

`CN1CCN(c2cc(F)c3cc(-c4nc5c(F)cccc5o4)c(=O)oc3c2)CC1` [Compound 366, 5-fluoro-3-(4-fluoro-1,3-benzoxazol-2-yl)-7-(4-methylpiperazin-1-yl)-2H-chromen-2-one] returned a melting point of 256 to 260 °C. The “maximum fold (Fold) increase” value in data set [1] was “** (fold increase between >1.2 and ≤1.35)”. Also, the EC (1.5-fold) in data set [2] (setting [3]) is 0.3 to 1 µM.

Consider `Cc1cc(F)c2nc(-c3cc4ccc(N5CCN(C)[C@@H](C)C5)cc4oc3=O)cn2c1` [Compound 471, 7-[(3S)-3,4-dimethylpiperazin-1-yl]-3-(8-fluoro-6-methylimidazo[1,2-a]pyridin-2-yl)-2H-chromen-2-one], for which the melting point was in the range of 270 to 277 °C. Further, in data set [1], the EC1.5x (concentration giving 1.5-fold Smn protein increase) was in the range of 300 to 1000 nM; the “maximum fold (Fold) increase” value was “**** (fold increase between >1.5 and ≤1.65)”. For the same molecule, in data set [2] (setting [3]), the EC (1.5-fold) lay in the range of 0.1 to 0.3 µM.

`Cc1cc(F)c2nc(-c3cc4ccc(N5CCN(C)[C@H](C)C5)cc4oc3=O)cn2c1` [Compound 533, 7-[(3R)-3,4-dimethylpiperazin-1-yl]-3-(8-fluoro-6-methylimidazo[1,2-a]pyridin-2-yl)-2H-chromen-2-one]: the melting point was 269 to 277 °C. In data set [1], the EC1.5x (concentration giving 1.5-fold Smn protein increase) was < 300 nM; the “maximum fold (Fold) increase” value is “**** (fold increase between >1.5 and ≤1.65)”. In addition, in data set [2] (setting [3]), the EC (1.5-fold) was < 0.1 µM.

Consider `Cc1ccn2cc(-c3cc4ccc(N5CCNCC5)cc4oc3=O)nc2n1` [Compound 223, 3-(7-methylimidazo[1,2-a]pyrimidin-2-yl)-7-(piperazin-1-yl)-2H-chromen-2-one], for which the melting point was 295 to 298 °C. The “maximum fold (Fold) increase” value in data set [1] is on record as “* (maximum fold increase of ≤1.2)”. Besides, in data set [2] (setting [3]), the EC (1.5-fold) lay in the range of 0.3 to 1 µM.

Consider `O=c1oc2cc(N3CCNCC3)ccc2cc1-c1cnccc1Cl` [Compound 235, 3-(4-chloropyridin-3-yl)-7-(piperazin-1-yl)-2H-chromen-2-one], for which the melting point fell in the range of 175 to 177 °C. Moreover, in data set [1], the “maximum fold (Fold) increase” value is reported as “* (maximum fold increase of ≤1.2)”. Moreover, the EC (1.5-fold) in data set [2] (24 h) lay in the range of 1 to 3 µM.

Take `COc1ccc(-c2cc3ccc(N4CCNCC4)cc3oc2=O)cc1F` [Compound 544, 3-(3-fluoro-4-methoxyphenyl)-7-(piperazin-1-yl)-2H-chromen-2-one]: the melting point is 241 to 243 °C. For the same molecule, the “maximum fold (Fold) increase” value in data set [1] was “** (fold increase between >1.2 and ≤1.35)”. The EC (1.5-fold) in data set [2] (setting [3]) lay in the range of 0.1 to 0.3 µM.

As to `Cc1cn2cc(-c3cc4ccc(N5C[C@H]6CCCN(C)[C@H]6C5)cc4oc3=O)nc2c(C)n1` [Compound 658, 3-(6,8-dimethylimidazo[1,2-a]pyrazin-2-yl)-7-[(4aR,7aR)-1-methyloctahydro-6H-pyrrolo[3,4-b]pyridin-6-yl]-2H-chromen-2-one], the melting point was 232 °C. Also, in data set [1], the EC1.5x (concentration giving 1.5-fold Smn protein increase) was < 300 nM and the “maximum fold (Fold) increase” value was “***** (fold increase >1.65)”. Further, the EC (1.5-fold) in data set [2] (setting [3]) was < 0.1 µM.

With `CCN1CCN(c2ccc3cc(-c4cc5cc(C)ccn5n4)c(=O)oc3c2)CC1` [Compound 307, 7-(4-ethylpiperazin-1-yl)-3-(5-methylpyrazolo[1,5-a]pyridin-2-yl)-2H-chromen-2-one], the melting point is 257 to 259 °C. For the same molecule, in data set [1], the EC1.5x (concentration giving 1.5-fold Smn protein increase) fell in the range of 3000 to 10000 nM; the “maximum fold (Fold) increase” value is “*** (fold increase between >1.35 and ≤1.5)”. The EC (1.5-fold) in data set [2] (setting [3]) fell in the range of 0.3 to 1 µM.

With `Cc1cc(C)c2nc(-c3cc4ccc(N5CCNCC5)cc4oc3=O)cn2c1` [Compound 260, 3-(6,8-dimethylimidazo[1,2-a]pyridin-2-yl)-7-(piperazin-1-yl)-2H-chromen-2-one], the melting point was in the range of 219 to 229 °C. The “maximum fold (Fold) increase” value in data set [1] is on record as “* (maximum fold increase of ≤1.2)”. For the same molecule, the EC (1.5-fold) in data set [2] (setting [3]) was 0.3 to 1 µM.

Consider `Cc1cn2cc(-c3cc4ccc(N5CCN(C(C)C)CC5)cc4oc3=O)cc2c(C)n1` [Compound 709, 3-(1,3-dimethylpyrrolo[1,2-a]pyrazin-7-yl)-7-[4-(propan-2-yl)piperazin-1-yl]-2H-chromen-2-one], for which the melting point was 173 to 176 °C. In data set [1], the EC1.5x (concentration giving 1.5-fold Smn protein increase) was in the range of 300 to 1000 nM; the “maximum fold (Fold) increase” value was “**** (fold increase between >1.5 and ≤1.65)”. In addition, the EC (1.5-fold) in data set [2] (setting [3]) is < 0.1 µM.

`O=C(Oc1ccc2cc(-c3nc4ccccc4s3)c(=O)oc2c1)N1CCNCC1` [Compound 41, 3-(1,3-benzothiazol-2-yl)-2-oxo-2H-chromen-7-yl piperazine-1-carboxylate] gave a melting point of 221 to 225 °C. Moreover, in data set [1], the “maximum fold (Fold) increase” value was “* (maximum fold increase of ≤1.2)”. Moreover, the EC (1.5-fold) in data set [2] (24 h) was 1 to 3 µM.

As to `Cc1ccc2nc(-c3cc4ccc(N5CC6CCCNC6C5)cc4oc3=O)cn2c1` (stereo not drawn) [Compound 255, 3-(6-methylimidazo[1,2-a]pyridin-2-yl)-7-(octahydro-6H-pyrrolo[3,4-b]pyridin-6-yl)-2H-chromen-2-one], the melting point lay in the range of 220 to 230 °C. Further, the “maximum fold (Fold) increase” value in data set [1] is listed as “* (maximum fold increase of ≤1.2)”. The EC (1.5-fold) in data set [2] (setting [3]) was 3 to 30 µM.

Regarding `Cc1cn2cc(-c3cc4ccc(C5CCNCC5)cc4oc3=O)cnc2n1` [Compound 834, 3-(2-methylimidazo[1,2-a]pyrimidin-6-yl)-7-(piperidin-4-yl)-2H-chromen-2-one], the melting point was 280 to 281 °C. Moreover, in data set [1], the EC1.5x (concentration giving 1.5-fold Smn protein increase) is < 300 nM and the “maximum fold (Fold) increase” value is recorded as “***** (fold increase >1.65)”. Further, the EC (1.5-fold) in data set [2] (setting [3]) is < 0.1 µM.

The molecule `Cc1cnc2nc(-c3cc4ccc(N5CCCN(C)CC5)cc4oc3=O)cn2c1` [Compound 250, 7-(4-methyl-1,4-diazepan-1-yl)-3-(6-methylimidazo[1,2-a]pyrimidin-2-yl)-2H-chromen-2-one] yielded a melting point of 285 to 287 °C. Moreover, in data set [1], the EC1.5x (concentration giving 1.5-fold Smn protein increase) is 1000 to 3000 nM; the “maximum fold (Fold) increase” value is “*** (fold increase between >1.35 and ≤1.5)”. In addition, in data set [2] (setting [3]), the EC (1.5-fold) was 0.1 to 0.3 µM.

Usually melting point stands for the temperature of the solid-liquid transition.
